Here are results for two substances from patent publication US10753947B2, “Methods for screening voltage-gated proteins” (D.E. Shaw Research, LLC, priority 2012, dated 2020).

Experiment [1] deals with KV2.1 wild-type base construct (hKv2.1-m7-c3). In words: Alpha currents (Iα) of Kv2.1 WT base construct in Xenopus oocytes, two electrode voltage-clamp. The experiment is classed as cell-based, human. Particulars: 1 nM AgTx2, WT. As to the method:
(§1) The coding cDNAs of KV2.1 “wild-type” (hereinafter WT) base construct (hKv2.1-m7-c3 is human Kv2.1, residues 1-858, mutated to confer AgTx2 sensitivity and to remove extracellular cysteine residues) was synthesized (Entelchon GmbH) and cloned into the high expression vector pBSTA.
Transcripted cRNA was produced using the mMessage mMachine kit (Ambion Inc.). Two to four days past injection of cRNA into stage V-VI Xenopus oocytes (NASCO) potassium currents through the alpha pore (Iα) were recorded with the two electrode voltage-clamp technique making use of a TURBO TEC-05× amplifier (npi electronic GmbH). Currents were filtered at 10 kHz and sampled at 20 kHz. The bath solution contained (in mM): NaCl 96, KCl 2, CaCl2 1, MgCl2 1 and HEPES 5 (pH 7.5). Voltage-recording and current-injecting microelectrodes were filled with 3 M KCl and pulled to have resistances between 0.2 and 1 MΩ (see Stork et al., 2007). The pClamp software package v.10.1 (Molecular Devices, Inc.) was used for data acquisition and analysis.
For recording of alpha currents (Iα), 100 ms pulses were applied from ˜60 to +60 mV in 10 mV steps at 1 Hz from a holding potential of ˜80 mV to the Kv2.1 channel constructs to measure alpha currents (Iα). Passive leak currents were subtracted online using a P/4 procedure: pClamp software generates a series of scaled-down replica sweeps of the main stimulus waveform. […]

For a further experiment, the system named is Kv2.1 R300S (R2S). In words: Alpha currents (Iα) of Kv2.1 R2S in Xenopus oocytes, two electrode voltage-clamp. Type of experiment: cell-based, human. Particulars: 1 nM AgTx2, R2S.
Text: as §1
Mutations Kv2.1 R294N (hereinafter R0N), Kv2.1 R300S (hereinafter R2S), Kv2.1 R294C/R300S (hereinafter R0C/R2S), Kv2.1 R293S/R294S (hereinafter R-1S/R0S), Kv2.1 R293S/R294C (hereinafter R-1S/R0C), Kv2.1 R293S/R294S/R300S (hereinafter R-1S/R0S/R2S), Kv2.1 R293S/R294C/R300S (hereinafter R-1S/R0C/R2S) were introduced using the QuikChange® Lightning Site-Directed Mutagenesis Kit (Stratagene) with mutagenic primers according to the manufacturer's instructions. All constructs were checked by restriction site mapping and sequencing.
Transcripted cRNA was produced using the mMessage mMachine kit (Ambion Inc.). Two to four days past injection of cRNA into stage V-VI Xenopus oocytes (NASCO) potassium currents through the alpha pore (Iα) were recorded with the two electrode voltage-clamp technique making use of a TURBO TEC-05× amplifier (npi electronic GmbH). Currents were filtered at 10 kHz and sampled at 20 kHz. The bath solution contained (in mM): NaCl 96, KCl 2, CaCl2 1, MgCl2 1 and HEPES 5 (pH 7.5). […]
In general terms: Two-electrode voltage clamp holds a large cell at a set potential and records current.

For experiment [2], the target named is T1, Kv2.1 channel in pancreatic β-cells (Homo sapiens, UniProt Q14721).
T1 construct: host or cells: pancreatic β-cells (endogenous channel)
T1 sequence (Q14721 1-858): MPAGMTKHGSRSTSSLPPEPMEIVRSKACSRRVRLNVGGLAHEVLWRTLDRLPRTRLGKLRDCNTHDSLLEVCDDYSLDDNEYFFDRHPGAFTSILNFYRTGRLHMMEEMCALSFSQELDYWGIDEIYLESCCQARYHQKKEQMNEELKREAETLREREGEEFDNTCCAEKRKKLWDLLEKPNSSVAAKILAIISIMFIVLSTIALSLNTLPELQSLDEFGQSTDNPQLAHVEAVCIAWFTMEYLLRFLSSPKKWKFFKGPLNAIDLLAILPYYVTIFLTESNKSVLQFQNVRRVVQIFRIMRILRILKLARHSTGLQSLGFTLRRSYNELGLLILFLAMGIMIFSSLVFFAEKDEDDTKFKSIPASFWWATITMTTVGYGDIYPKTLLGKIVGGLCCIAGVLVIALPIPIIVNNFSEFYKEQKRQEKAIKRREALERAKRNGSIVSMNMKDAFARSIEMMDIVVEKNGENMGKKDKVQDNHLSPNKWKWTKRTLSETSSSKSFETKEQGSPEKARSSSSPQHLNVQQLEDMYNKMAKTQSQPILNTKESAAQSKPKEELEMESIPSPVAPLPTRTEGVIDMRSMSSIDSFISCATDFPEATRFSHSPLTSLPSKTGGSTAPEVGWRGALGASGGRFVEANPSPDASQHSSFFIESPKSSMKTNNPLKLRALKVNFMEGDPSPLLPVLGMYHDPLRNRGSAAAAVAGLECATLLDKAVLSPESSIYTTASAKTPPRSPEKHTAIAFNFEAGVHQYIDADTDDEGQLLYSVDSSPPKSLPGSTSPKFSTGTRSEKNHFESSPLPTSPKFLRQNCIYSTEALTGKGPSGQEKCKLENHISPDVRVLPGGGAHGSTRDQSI
Particulars: cited from earlier work.

Turning to “Agitotoxin-2 (GVPINVSCTGSPQCIKPCKDAGMRFGKCMNRKCHCTPK) [AgTx2]”, the entries for the “Mean inhibition of the maximal outward current at +60 mV” value (in experiment [1]; in the experiment with Kv2.1 R300S (R2S)) were 66.5±2.9% and 67.8±2.8%, respectively.
As for “Guangxitoxin (EGECGGFWWKCGSGKPACCPKYVCSPKWGLCNFPMP) [GxTx-1E]”, the “Inhibits the Kv2.1 channel in pancreatic β-cells” value in experiment [2] was “nanomolar range”.
